“Also recorded” adds a separate entry of the source.
How the values were obtained:
Assay type in all cases: in vivo
[1] = tested on: swine exposed to 1.5 ATA hyperbaric oxygen for 17.5 hr; assay: Experiment 1 shallow exposure simulation: pulmonary capacities; conditions: 1.5 ATA O2 17.5 hr, percent change from baseline
Protocol: Experiment 1 is designed to evaluate the efficacy of tiotropium bromide administered pre-dive in reducing decrements in pulmonary function due to PO2T following a 17.5 hour, 1.5 ATA hyperbaric oxygen exposure. This dive profile was selected because it was of sufficient duration to elicit persistent pulmonary function decrement in humans.
The swine were anesthetized with propofol (20 cc, I.V. target, adjusted as needed to optimize sedation), intubated and ventilated. Anesthetized swine were shaved, then ECG and EEG electrodes were placed. Animals were then paralyzed with Atracurium Besylate (50 mg, IV) for accurate pulmonary function measurements of quasi-static and dynamic compliance.
Following baseline pulmonary function measurements, the swine were randomized to receive equivalent volumes of normal saline or tiotropium bromide (18 mcg) via nebulizer. The swine were then ventilated until muscle tone was regained. Sedation was discontinued and the swine were extubated, transported to the hyperbaric chamber and allowed to recover until able to independently stand. Once able to stand, animals had electrode leads attached and IV tubing connected to the ear vein catheter. The chamber hatch was then closed and the swine compressed to 1.5 ATA on air.
(§1) Next, the swine were switched to 100% oxygen breathing gas and remained at 1.5 ATA for 17.5 hr. At the end of the 17.5 hour 1.5 ATA oxygen exposure, swine surfaced at a rate of 1 ATA/minutes (ATA/min), were transferred to a Panepinto sling, sedated with diazepam (1.5-2.0 mg/kg, I.V) and reassessed via impulse Oscillometry. The swine were again anesthetized with propofol and intubated. When fully sedated, the swine were ventilated, paralyzed with Atracurium Besylate, and post-dive measurements of pulmonary function were recorded. During all phases of study the swine were continuously monitored for signs of seizure or distress.
Baseline and post-dive assessments of pulmonary compliance were conducted on each animal enrolled in the study. […] These values were expressed as percent change from baseline.

[2] = tested on: swine exposed to 1.5 ATA hyperbaric oxygen for 17.5 hr; assay: Experiment 1: adverse effects observation
Protocol: as §1
Once measurements were complete, animals were then euthanized by intravenous infusion of euthanasia solution (Euthasol 1-1.5 ml/10 lbs. body weight) and transported to the necropsy suite for post-mortem sample collection.

[3] = tested on: swine exposed to 2.5 ATA hyperbaric oxygen for 5.5 hr; assay: Experiment 2: adverse reactions / seizure observation; conditions: 2.5 ATA oxygen exposure
Description: (§2) Hyperbaric Exposures: Individual animals were then placed into a Plexiglas box (30 in.×42 in.×38 in., manufactured in-house) within a Multiple Large Animal Chamber (MLAC), which is a steel-hulled hyperbaric chamber (450-cubic ft. floodable volume and pressure tested to 1,230 feet of seawater [fsw] equivalent) (Bethlehem Steel Corp, Bethlehem Pa.). Pressure/depth was monitored by a CPG 2500 Digital Pressure Gauge (Mensor Corp., San Marcos, Tex.). Swine were dove in pairs with each treatment group represented. Swine box assignment was alternated with respect to treatment to avoid any effects associated with individual box environmental features. Animals were monitored via closed-circuit television to observe signs of distress related to middle ear barotrauma (e.g. head shaking, nystagmus) and seizure activity. Oxygen concentration was measured and recorded using a portable O2 analyzer (Teledyne Analytical Inst, City of Industry, Calif.). After positioning the animal inside the Plexiglas box, the MLAC was sealed and pressurized using air at the rate of I ATA/minute to a depth of 2.5 ATA. After 2.5 min at a bottom depth equivalent to 2.5 ATA, the breathing gas was switched to 100% O2 and maintained for 5.5 Hrs. After completing 5.5 Hrs on 100% O2, the inspired gas was switched back to air for 3 min. Then, the chamber was decompressed at 1 ATA/minute. […]

[4] = tested on: swine exposed to 2.5 ATA hyperbaric oxygen for 5.5 hr; assay: Experiment 2 deep exposure simulation: pulmonary compliance
Protocol: Experiment 2 is designed to evaluate the efficacy of tiotropium bromide pre-dive with respect to reducing decrements in pulmonary function due to PO2T following a 5.5 hour, 2.5 ATA hyperbaric oxygen exposure. This dive profile was selected because it caused the most significant pulmonary function deficits in humans with minimal risk of seizure due to CNS oxygen toxicity.
Pulmonary function testing: The swine had disposable prewired electrodes adhered to the dermis over the gluteal muscle and a train of four (TOF) stimulation was initiated to confirm proper placement and twitch using a DigiStim III Peripheral Nerve Stimulator (Neuro Technology Inc., Kerrville, Tex.). Atracurium besylate (50 mg, IV) (hospira, Lake Forest, Ill.) was injected into the ear vein catheter, and the swine was observed until cessation of muscle twitch with TOFs. The swine was then disconnected from the ventilator circuit, allowed to passively exhale, and connected to an O2 filled 3 L super syringe (Hamilton Company, Reno, Nev.) attached to a pressure gauge (OMEGA®, Norwalk, Conn.), and pneumotachometer (Harvard Apparatus, Holliston, Mass.). Oxygen was introduced in 100 ml increments every 3 seconds until a static pressure of 40 cm H2O was reached. The lungs were then deflated in 100 ml increments until a static pressure of −40 cm H2O. The swine was then reconnected to the ventilator and ventilated for 2 minutes before repeating the insufflation and exhalation maneuvers and measurements one more time. […] After the above measurements, swine received either nebulized Tiotropium (18 μg dissolved in saline) or an equal volume of 0.9% saline through the breathing circuit over the course of 15 minutes. The propofol infusion was then stopped, the animals were then monitored until a swallow reflex was observed then extubated. The swine were then transported to the hyperbaric chamber suite and allowed to recover until capable of standing.
as §2, with “ATA/minute. Upon reaching surface the animal was transported to the surgical suite for post-dive ECG and pulmonary function measurements (identical to the pre-dive procedures).” for “ATA/minute.”

In the case of C[N+]1(C)[C@@H]2C[C@@H](OC(=O)C(O)(c3cccs3)c3cccs3)C[C@H]1[C@@H]1O[C@@H]12 [Tiotropium, tiotropium bromide], the “Vital Capacity, Saline vs Tiotropium” value ([1]; p=0.394) is reported as “no significant differences”, the “Expiratory Reserve Volume, Saline vs Tiotropium” value ([1]; p=0.445) is reported as “no significant differences” and the “Inspiratory capacity, Saline vs Tiotropium” value ([1]; p=0.879) is reported as “no significant differences”. For the same compound, the “adverse effect on outcome at any of the assessed endpoints” value ([2]; 1.5 ATA O2 17.5 hr, 18 mcg nebulized pre-dive) was “no observable adverse effect”, the “adverse reactions (including seizure)” value ([2]; 1.5 ATA oxygen exposure) was “no adverse reactions” and the “adverse reactions (including seizure)” value [3] was “no adverse reactions”. For the same compound, the “pulmonary compliance, inspiratory arm, post-exposure vs baseline” value ([4]; 2.5 ATA O2 5.5 hr, 1st set of measurements, n=7, p=0.1999) was “no significant difference”, the “expiratory compliance, post-exposure vs baseline” value ([4]; 2.5 ATA O2 5.5 hr, 1st set of measurements, n=7, p=0.5711) was “did not exhibit any decrement” and the “pulmonary compliance, expiratory arm, post-exposure vs baseline” value ([4]; 2.5 ATA O2 5.5 hr, 2nd set of measurements, n=9, p=0.0438) was “significant decrement”. For the same compound, the “pulmonary compliance, inspiratory arm, post-exposure vs baseline” value ([4]; 2.5 ATA O2 5.5 hr, 2nd set of measurements, n=9, p=0.7388) was “no significant change” and the “pulmonary compliance after hyperbaric oxygen exposure” value ([4]; 2.5 ATA for 5.5 hrs, 18 μg inhaled, nebulized, prophylactic, p=0.9094) was “no decrement in pulmonary compliance; also recorded: no change”.
